Results published in ChEMBL document CHEMBL3991601, “The target landscape of clinical kinase drugs” (Science, 2017).
Activity calls are given as the source filed them. Rule as the data show it, for most assays here: actives have a measured Kd and inactives only a lower limit.

Legend:
[1] = target: Cyclin-dependent kinase 5 (Homo sapiens, UniProt Q00535)
[2] = target: T1, Interleukin-1 receptor-associated kinase 3 (Homo sapiens, UniProt Q9Y616)
T1 sequence (Q9Y616 whole entry): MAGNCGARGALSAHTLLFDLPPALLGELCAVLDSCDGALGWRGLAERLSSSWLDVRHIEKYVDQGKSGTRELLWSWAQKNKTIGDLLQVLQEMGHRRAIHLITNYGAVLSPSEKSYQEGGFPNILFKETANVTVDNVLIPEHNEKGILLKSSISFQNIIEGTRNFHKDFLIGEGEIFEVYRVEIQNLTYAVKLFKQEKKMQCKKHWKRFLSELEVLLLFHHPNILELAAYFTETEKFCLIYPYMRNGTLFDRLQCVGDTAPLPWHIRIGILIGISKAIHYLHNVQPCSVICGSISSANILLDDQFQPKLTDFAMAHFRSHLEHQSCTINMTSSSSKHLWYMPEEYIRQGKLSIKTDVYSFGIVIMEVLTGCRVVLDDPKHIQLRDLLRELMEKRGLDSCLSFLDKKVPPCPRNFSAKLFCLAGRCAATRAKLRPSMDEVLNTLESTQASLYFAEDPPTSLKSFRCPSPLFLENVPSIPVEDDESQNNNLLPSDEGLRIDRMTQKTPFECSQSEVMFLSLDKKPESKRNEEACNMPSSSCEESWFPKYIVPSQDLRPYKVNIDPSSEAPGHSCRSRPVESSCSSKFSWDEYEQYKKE

[3] = target: Mitogen-activated protein kinase kinase kinase 1 (Homo sapiens, UniProt Q13233)
[4] = target: Mitogen-activated protein kinase 1 (Homo sapiens, UniProt P28482)
[5] = target: T2, Serine/threonine-protein kinase PLK4 (Homo sapiens, UniProt O00444)
T2 sequence (O00444 whole entry): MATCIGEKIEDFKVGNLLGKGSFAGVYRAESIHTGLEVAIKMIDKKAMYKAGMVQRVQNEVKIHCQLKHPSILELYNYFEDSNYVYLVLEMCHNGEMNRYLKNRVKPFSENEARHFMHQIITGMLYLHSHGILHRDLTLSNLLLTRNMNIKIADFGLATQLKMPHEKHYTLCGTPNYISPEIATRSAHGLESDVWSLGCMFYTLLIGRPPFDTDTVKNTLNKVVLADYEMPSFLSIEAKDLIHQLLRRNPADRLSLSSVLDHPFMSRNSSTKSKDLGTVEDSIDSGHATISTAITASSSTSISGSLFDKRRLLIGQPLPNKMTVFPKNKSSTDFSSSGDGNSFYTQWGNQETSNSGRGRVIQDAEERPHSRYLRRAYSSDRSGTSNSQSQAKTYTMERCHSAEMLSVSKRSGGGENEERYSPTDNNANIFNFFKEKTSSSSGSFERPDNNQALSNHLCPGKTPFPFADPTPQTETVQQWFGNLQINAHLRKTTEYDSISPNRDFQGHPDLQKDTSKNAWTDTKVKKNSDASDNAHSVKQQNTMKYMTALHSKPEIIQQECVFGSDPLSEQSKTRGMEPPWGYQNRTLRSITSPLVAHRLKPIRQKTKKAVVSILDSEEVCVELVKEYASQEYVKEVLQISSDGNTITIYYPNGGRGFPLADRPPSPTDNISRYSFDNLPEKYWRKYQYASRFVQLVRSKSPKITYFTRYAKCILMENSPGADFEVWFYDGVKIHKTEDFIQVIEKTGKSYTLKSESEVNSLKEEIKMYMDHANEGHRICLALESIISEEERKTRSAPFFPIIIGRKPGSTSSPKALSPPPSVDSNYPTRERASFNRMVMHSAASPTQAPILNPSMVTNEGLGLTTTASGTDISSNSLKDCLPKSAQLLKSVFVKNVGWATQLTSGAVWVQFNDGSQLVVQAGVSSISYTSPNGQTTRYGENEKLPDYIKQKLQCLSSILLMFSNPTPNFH

[6] = target: 5'-AMP-activated protein kinase catalytic subunit alpha-1 (Homo sapiens, UniProt Q13131)
Focal adhesion kinase 1 = Focal adhesion kinase 1 (Homo sapiens, UniProt Q05397)
[7] = target: Protein-tyrosine kinase 2-beta (Homo sapiens, UniProt Q14289)
[8] = target: T3, Tyrosine-protein kinase Tec (Homo sapiens, UniProt P42680)
T3 sequence (P42680 whole entry): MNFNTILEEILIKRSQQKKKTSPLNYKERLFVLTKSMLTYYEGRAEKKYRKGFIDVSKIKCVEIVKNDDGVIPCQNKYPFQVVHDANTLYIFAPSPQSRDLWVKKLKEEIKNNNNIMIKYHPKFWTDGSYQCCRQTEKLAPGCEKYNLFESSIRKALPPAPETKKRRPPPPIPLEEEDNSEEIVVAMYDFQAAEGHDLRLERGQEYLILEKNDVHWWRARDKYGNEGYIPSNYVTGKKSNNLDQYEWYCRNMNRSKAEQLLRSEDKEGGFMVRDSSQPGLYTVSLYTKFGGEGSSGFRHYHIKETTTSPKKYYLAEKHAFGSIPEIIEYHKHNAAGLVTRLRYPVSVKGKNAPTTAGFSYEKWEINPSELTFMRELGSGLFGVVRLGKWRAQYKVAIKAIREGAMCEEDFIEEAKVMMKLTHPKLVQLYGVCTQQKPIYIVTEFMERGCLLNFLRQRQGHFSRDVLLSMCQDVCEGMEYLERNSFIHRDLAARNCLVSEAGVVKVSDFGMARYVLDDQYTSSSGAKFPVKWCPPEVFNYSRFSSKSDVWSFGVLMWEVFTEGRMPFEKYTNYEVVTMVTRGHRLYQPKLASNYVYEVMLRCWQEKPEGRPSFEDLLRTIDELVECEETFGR
Also: in the data inactive means no Kd found up to 30 µM.

Protein-tyrosine kinase 2-beta, sequence (Q14289 whole entry): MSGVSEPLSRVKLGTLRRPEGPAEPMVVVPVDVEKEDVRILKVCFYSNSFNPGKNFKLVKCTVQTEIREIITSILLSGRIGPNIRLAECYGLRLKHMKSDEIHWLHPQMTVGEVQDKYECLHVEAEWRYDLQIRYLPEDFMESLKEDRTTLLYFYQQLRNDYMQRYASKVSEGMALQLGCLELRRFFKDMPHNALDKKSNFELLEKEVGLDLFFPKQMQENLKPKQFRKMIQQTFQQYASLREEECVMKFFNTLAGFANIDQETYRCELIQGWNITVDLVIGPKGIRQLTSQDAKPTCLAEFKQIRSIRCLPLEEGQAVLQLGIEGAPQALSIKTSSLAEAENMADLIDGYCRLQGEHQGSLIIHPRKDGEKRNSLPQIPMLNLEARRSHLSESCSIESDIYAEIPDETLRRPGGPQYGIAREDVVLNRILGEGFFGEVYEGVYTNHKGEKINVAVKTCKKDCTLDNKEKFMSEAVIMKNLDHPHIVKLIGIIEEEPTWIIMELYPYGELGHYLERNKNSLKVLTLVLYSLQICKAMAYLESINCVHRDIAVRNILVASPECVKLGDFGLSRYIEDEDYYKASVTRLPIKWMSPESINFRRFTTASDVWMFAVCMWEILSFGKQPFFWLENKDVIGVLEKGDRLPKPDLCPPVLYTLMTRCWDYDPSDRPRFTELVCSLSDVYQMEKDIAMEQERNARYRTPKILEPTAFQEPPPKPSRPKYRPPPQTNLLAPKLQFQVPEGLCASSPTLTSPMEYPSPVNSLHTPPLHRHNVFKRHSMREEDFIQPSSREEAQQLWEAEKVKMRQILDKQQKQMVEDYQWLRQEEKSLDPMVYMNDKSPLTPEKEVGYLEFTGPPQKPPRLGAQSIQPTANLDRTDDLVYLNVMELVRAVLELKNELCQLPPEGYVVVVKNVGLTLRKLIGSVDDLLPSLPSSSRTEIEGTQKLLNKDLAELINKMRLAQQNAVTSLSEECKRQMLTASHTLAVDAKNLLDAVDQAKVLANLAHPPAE
Mitogen-activated protein kinase 1, sequence (P28482 whole entry): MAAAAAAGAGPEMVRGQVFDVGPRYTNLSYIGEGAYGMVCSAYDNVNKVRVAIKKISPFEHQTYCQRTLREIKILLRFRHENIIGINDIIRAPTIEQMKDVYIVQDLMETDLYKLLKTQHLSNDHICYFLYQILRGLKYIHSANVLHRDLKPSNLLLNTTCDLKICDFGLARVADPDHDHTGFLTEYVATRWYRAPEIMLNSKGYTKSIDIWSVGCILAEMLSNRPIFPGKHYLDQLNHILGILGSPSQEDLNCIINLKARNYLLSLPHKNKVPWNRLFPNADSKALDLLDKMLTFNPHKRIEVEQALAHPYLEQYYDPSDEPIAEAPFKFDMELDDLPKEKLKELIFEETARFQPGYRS
Mitogen-activated protein kinase kinase kinase 1, sequence (Q13233 whole entry): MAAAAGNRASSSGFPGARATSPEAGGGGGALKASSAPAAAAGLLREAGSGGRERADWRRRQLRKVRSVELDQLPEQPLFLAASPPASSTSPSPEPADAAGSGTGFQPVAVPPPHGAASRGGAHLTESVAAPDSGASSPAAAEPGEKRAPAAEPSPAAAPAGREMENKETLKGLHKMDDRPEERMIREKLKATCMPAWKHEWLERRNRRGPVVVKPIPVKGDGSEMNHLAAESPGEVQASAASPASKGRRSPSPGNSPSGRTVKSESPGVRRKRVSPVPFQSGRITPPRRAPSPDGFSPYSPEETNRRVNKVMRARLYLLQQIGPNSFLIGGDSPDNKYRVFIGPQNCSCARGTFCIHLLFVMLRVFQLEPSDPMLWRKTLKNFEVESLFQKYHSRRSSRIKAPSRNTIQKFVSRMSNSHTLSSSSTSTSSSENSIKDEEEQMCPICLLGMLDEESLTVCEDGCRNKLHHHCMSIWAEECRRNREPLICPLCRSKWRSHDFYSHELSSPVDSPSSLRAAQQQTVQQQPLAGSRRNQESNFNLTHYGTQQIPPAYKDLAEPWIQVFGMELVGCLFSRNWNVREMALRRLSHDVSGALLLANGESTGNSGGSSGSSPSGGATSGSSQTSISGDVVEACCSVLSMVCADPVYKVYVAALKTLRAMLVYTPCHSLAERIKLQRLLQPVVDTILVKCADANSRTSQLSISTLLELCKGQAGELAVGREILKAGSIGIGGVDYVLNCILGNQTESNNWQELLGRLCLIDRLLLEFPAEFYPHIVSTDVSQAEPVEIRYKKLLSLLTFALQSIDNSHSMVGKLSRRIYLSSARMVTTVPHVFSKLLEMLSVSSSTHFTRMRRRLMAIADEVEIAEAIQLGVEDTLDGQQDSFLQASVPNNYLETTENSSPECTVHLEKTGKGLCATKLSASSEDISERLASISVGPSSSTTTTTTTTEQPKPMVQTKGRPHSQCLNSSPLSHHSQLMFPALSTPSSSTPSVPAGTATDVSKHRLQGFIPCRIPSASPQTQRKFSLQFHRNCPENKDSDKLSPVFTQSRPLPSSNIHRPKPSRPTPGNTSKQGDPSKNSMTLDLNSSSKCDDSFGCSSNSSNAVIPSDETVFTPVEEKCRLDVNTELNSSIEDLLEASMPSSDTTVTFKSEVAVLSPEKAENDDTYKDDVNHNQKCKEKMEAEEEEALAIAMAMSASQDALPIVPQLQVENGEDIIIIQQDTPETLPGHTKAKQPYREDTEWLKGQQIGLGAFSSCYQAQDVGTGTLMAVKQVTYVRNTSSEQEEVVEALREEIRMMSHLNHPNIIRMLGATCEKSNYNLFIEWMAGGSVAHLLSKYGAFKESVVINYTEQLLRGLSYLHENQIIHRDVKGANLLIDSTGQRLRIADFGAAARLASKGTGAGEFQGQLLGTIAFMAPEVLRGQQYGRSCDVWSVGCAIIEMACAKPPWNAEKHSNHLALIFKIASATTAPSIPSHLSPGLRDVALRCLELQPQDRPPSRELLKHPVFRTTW
Cyclin-dependent kinase 5, sequence (Q00535 whole entry): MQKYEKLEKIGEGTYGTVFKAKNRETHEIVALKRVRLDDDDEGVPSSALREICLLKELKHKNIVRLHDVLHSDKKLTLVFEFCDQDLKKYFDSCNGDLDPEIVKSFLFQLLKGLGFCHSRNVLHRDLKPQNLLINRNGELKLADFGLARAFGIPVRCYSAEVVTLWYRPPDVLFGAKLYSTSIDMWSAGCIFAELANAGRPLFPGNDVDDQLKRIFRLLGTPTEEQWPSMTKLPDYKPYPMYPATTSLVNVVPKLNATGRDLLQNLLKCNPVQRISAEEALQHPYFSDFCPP
5'-AMP-activated protein kinase catalytic subunit alpha-1, sequence (Q13131 whole entry): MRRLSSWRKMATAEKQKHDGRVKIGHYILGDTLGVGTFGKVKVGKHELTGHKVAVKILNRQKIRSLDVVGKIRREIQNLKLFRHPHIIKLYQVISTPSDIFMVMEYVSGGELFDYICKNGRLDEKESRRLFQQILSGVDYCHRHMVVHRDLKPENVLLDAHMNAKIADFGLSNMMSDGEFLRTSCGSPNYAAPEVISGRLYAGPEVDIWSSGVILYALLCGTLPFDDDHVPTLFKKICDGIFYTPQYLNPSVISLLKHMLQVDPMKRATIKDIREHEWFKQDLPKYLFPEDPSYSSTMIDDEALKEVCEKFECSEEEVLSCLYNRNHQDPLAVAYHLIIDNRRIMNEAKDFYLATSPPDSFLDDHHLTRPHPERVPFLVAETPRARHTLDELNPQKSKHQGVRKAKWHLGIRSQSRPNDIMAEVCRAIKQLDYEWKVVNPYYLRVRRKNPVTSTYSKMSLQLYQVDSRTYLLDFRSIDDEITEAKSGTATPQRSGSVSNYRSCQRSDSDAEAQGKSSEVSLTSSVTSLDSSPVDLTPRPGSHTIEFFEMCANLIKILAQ
Focal adhesion kinase 1, sequence (Q05397 whole entry): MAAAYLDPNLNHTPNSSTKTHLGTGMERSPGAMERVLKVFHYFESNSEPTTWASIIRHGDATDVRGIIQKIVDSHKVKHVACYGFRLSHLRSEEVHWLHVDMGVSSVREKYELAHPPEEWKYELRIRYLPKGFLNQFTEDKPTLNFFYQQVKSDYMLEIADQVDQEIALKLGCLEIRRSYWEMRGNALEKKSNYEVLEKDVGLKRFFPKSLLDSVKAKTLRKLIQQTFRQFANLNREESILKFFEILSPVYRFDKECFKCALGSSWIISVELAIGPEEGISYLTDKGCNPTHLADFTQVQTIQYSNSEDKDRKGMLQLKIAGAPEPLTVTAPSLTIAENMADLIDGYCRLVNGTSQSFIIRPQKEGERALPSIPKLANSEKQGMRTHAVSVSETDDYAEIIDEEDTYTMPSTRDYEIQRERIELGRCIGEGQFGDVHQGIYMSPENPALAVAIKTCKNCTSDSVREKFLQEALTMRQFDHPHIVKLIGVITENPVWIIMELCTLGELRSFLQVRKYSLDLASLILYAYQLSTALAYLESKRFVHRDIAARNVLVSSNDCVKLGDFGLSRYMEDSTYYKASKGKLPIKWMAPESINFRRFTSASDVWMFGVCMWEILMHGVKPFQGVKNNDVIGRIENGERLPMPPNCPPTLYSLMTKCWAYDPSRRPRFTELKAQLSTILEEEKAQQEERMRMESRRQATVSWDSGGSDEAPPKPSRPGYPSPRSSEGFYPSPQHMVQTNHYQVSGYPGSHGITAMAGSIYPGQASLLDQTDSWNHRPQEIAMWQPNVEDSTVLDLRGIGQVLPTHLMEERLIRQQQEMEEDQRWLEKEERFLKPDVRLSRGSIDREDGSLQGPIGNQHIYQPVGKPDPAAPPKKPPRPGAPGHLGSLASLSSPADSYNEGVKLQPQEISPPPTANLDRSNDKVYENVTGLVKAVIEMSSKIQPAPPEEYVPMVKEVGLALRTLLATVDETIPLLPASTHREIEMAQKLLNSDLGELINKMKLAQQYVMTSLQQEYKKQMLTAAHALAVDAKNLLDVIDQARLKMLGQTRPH

| Kd [1] | Kd [2] | Kd [3] | Kd [4] | Kd [5] | Kd [6] | Kd (Focal adhesion kinase 1) | Kd [7] | Kd [8] | SMILES |
| --- | --- | --- | --- | --- | --- | --- | --- | --- | --- |
| > 30 µM (inactive) | > 30 µM (inactive) | > 30 µM (inactive) | > 30 µM (inactive) | > 30 µM (inactive) | > 30 µM (inactive) | > 30 µM (inactive) | > 30 µM (inactive) | > 30 µM (inactive) | C[C@@H](Nc1cc(F)cc(F)c1)c1cc(C(=O)N(C)C)cc2c(=O)cc(N3CCOCC3)oc12 [AZD-8186] |
| > 30 µM (inactive) | > 30 µM (inactive) | > 30 µM (inactive) | > 30 µM (inactive) | > 30 µM (inactive) | > 30 µM (inactive) | > 30 µM (inactive) | > 30 µM (inactive) | > 30 µM (inactive) | CN1N=C(N)c2cn([C@@H]3O[C@H](COP(=O)(O)O)[C@@H](O)[C@H]3O)c3ncnc1c23 [TRICIRIBINE PHOSPHATE] |
| > 30 µM (inactive) | > 30 µM (inactive) | > 30 µM (inactive) | > 30 µM (inactive) | > 30 µM (inactive) | > 30 µM (inactive) | > 30 µM (inactive) | > 30 µM (inactive) | > 30 µM (inactive) | Cn1cc(-c2ccc3nnc(C(F)(F)c4ccc5ncccc5c4)n3n2)cn1 [JNJ-38877605] |
| > 30 µM (inactive) | > 30 µM (inactive) | > 30 µM (inactive) | > 30 µM (inactive) | > 30 µM (inactive) | > 30 µM (inactive) | > 30 µM (inactive) | > 30 µM (inactive) | > 30 µM (inactive) | CNC(=O)CN1CCC(Oc2cc3c(Nc4cccc(Cl)c4F)ncnc3cc2OC)CC1 [SAPITINIB] |
| > 30 µM (inactive) | > 30 µM (inactive) | > 30 µM (inactive) | > 30 µM (inactive) | > 30 µM (inactive) | > 30 µM (inactive) | > 30 µM (inactive) | > 30 µM (inactive) | > 30 µM (inactive) | Cc1ccc(S(=O)(=O)Nc2nc3ccccc3nc2Nc2ccc3nsnc3c2)cc1 |
| > 30 µM (inactive) | > 30 µM (inactive) | > 30 µM (inactive) | > 30 µM (inactive) | > 30 µM (inactive) | > 30 µM (inactive) | > 30 µM (inactive) | > 30 µM (inactive) | > 30 µM (inactive) | N[C@@H]1CCCN(c2c(/C=C3\SC(=O)NC3=O)cccc2-c2ccccc2)C1 |
| > 30 µM (inactive) | > 30 µM (inactive) | > 30 µM (inactive) | > 30 µM (inactive) | > 30 µM (inactive) | > 30 µM (inactive) | > 30 µM (inactive) | > 30 µM (inactive) | > 30 µM (inactive) | CNC(=O)c1ccc(C)c(-n2c(C)cc(OCc3ccc(F)cc3F)c(Br)c2=O)c1 [PH-797804] |
| > 30 µM (inactive) | > 30 µM (inactive) | 0.465 µM (active) | > 30 µM (inactive) | > 30 µM (inactive) | > 30 µM (inactive) | > 30 µM (inactive) | > 30 µM (inactive) | > 30 µM (inactive) | CNC(=O)c1cc(Oc2ccc(NC(=O)Nc3ccc(Cl)c(C(F)(F)F)c3)c(F)c2)ccn1 [REGORAFENIB] |

Continued, molecule first:

| SMILES | Kd [1] | Kd [2] | Kd [3] | Kd [4] | Kd [5] | Kd [6] | Kd (Focal adhesion kinase 1) | Kd [7] | Kd [8] |
| --- | --- | --- | --- | --- | --- | --- | --- | --- | --- |
| O=c1sn(-c2cccc3ccccc23)c(=O)n1Cc1ccccc1 [TIDEGLUSIB] | > 30 µM (inactive) | > 30 µM (inactive) | > 30 µM (inactive) | > 30 µM (inactive) | > 30 µM (inactive) | > 30 µM (inactive) | > 30 µM (inactive) | > 30 µM (inactive) | > 30 µM (inactive) |
| C=CC(=O)N1CCC(Oc2cc3c(Nc4ccc(Cl)c(Cl)c4F)ncnc3cc2OC)CC1 [POZIOTINIB] | > 30 µM (inactive) | > 30 µM (inactive) | > 30 µM (inactive) | > 30 µM (inactive) | > 30 µM (inactive) | > 30 µM (inactive) | > 30 µM (inactive) | > 30 µM (inactive) | 0.069 µM (active) |
| CN1CC[C@@H](c2c(O)cc(O)c3c(=O)cc(-c4ccccc4Cl)oc23)[C@@H]1CO | > 30 µM (inactive) | > 30 µM (inactive) | > 30 µM (inactive) | > 30 µM (inactive) | > 30 µM (inactive) | > 30 µM (inactive) | > 30 µM (inactive) | > 30 µM (inactive) | > 30 µM (inactive) |
| C[C@@H]1CN(Cc2ccc(F)cc2)[C@@H](C)CN1C(=O)c1cc2c(C(=O)C(=O)N(C)C)cn(C)c2cc1Cl [TALMAPIMOD] | > 30 µM (inactive) | > 30 µM (inactive) | > 30 µM (inactive) | > 30 µM (inactive) | > 30 µM (inactive) | > 30 µM (inactive) | > 30 µM (inactive) | > 30 µM (inactive) | > 30 µM (inactive) |
| C1=C/COCc2cc(ccc2OCCN2CCCC2)Nc2nccc(n2)-c2cccc(c2)COC/1 [PACRITINIB] | > 30 µM (inactive) | 0.035 µM (active) | > 30 µM (inactive) | > 30 µM (inactive) | > 30 µM (inactive) | > 30 µM (inactive) | > 30 µM (inactive) | > 30 µM (inactive) | > 30 µM (inactive) |
| COc1cc(N2CCC(N3CCN(C)CC3)CC2)ccc1Nc1ncnc(Nc2ccccc2S(=O)(=O)C(C)C)n1 [ASP-3026] | > 30 µM (inactive) | > 30 µM (inactive) | > 30 µM (inactive) | > 30 µM (inactive) | 0.07 µM (active) | > 30 µM (inactive) | 0.074 µM (active) | 0.273 µM (active) | 1.02 µM (active) |
| CNC(=O)c1ccc(-c2cnc3ncc(Cc4ccc5ncccc5c4)n3n2)cc1F [CAPMATINIB] | > 30 µM (inactive) | > 30 µM (inactive) | > 30 µM (inactive) | > 30 µM (inactive) | > 30 µM (inactive) | > 30 µM (inactive) | > 30 µM (inactive) | > 30 µM (inactive) | > 30 µM (inactive) |
| CN1CCC(COc2cnc(-c3cccc(Cn4nc(-c5cccc(C#N)c5)ccc4=O)c3)nc2)CC1 [TEPOTINIB] | > 30 µM (inactive) | > 30 µM (inactive) | > 30 µM (inactive) | > 30 µM (inactive) | > 30 µM (inactive) | > 30 µM (inactive) | > 30 µM (inactive) | > 30 µM (inactive) | > 30 µM (inactive) |
| O=C(c1ccc(F)c(F)c1Nc1ccc(I)cc1F)N1CC(O)([C@@H]2CCCCN2)C1 [COBIMETINIB] | > 30 µM (inactive) | > 30 µM (inactive) | > 30 µM (inactive) | > 30 µM (inactive) | > 30 µM (inactive) | > 30 µM (inactive) | > 30 µM (inactive) | > 30 µM (inactive) | > 30 µM (inactive) |
